Measurements from patent US11226337B2, “Chemoproteomic profiling of protein electrophilic and oxidative post-translational modifications” (Zenagem, LLC, priority 2017, dated 2022).

Legend:
Format in all cases: cell-based
[1] = biological target: T1, SCRN3 Secernin-3 (Q0VDG4) (Homo sapiens, UniProt Q0VDG4); test: SILAC RP-ABPP; settings: SILAC competition, drug in place of probe 3
T1 construct: shared by both the endogenous and recombinant forms of these proteins; endogenous in cells; host or cells: HEK293T and MDA-MB-231
T1 sequence (Q0VDG4 6-424): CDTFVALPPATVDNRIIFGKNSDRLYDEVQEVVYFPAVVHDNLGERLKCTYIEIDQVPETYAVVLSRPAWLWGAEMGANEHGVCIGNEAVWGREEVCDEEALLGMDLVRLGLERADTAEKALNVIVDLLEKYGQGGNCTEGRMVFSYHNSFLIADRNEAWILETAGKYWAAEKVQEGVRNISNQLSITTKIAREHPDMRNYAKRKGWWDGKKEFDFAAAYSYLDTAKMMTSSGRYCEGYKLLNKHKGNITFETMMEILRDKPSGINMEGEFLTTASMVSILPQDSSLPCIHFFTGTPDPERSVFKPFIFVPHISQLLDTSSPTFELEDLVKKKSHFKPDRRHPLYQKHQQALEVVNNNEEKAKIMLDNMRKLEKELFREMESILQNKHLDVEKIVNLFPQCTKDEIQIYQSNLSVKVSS
Procedure: (§1) Modifications to this protocol included using isotopically ‘light’ and ‘heavy’ SILAC cells that were also grown to near complete confluence prior to treatment. Isotopically light cells were treated with the non-clickable hydrazine probe (at the same concentration as the probe in ‘enrichment’ experiments) or the probe in the presence of 10-fold excess non-clickable hydrazine probe as a competitor (in ‘competition’ experiments). Isotopically heavy cells were treated with the probe for both types of experiments. These treatments were performed in non-SILAC media. Following treatments, cells were washed with cold PBS to remove the probe-containing media, harvested by scraping, collected by centrifugation (1,400 g, 3 min, 4° C.), washed again by resuspension in cold PBS and frozen as pellets at −80° C. until use.
(§2) The fractionated equimolar mixture of heavy and light soluble proteomes (1-1.5 mg) was diluted to 1 mL in PBS. Click reactions were scaled accordingly (except for biotin-azide) to maintain final concentrations of 0.1 mM TBTA, 1 mM CuSO4, 100 μM biotin-azide (10 mM in DMSO) and 1 mM TCEP. The mixture was vortexed and placed on a rotator at ambient temperature for 1 hour. Sequential addition of and mixture with pre-chilled methanol (MeOH, 2 mL), chloroform (CHCl3, 0.5 mL) and PBS (1 mL) on ice quenched the reaction. The precipitated proteome was centrifuged (5,000 g, 10 min, 4° C.) to fractionate the protein interphase from the organic and aqueous solvent layers. The protein pellet was washed with cold 1:1 MeOH:CHCl3 (3×1 mL), mildly sonicated in cold 4:1 MeOH:CHCl3 (2.5 mL) and pelleted once more by centrifugation (5,000 g, 10 min, 4° C.) to ensure click reagents were efficiently removed.
(§3) Heavy and light parent ion chromatograms associated with successfully identified peptides were extracted and compared using CIMAGE software as previously described^69. At least one ion of a co-eluting heavy-light pair must be accurately identified from a fragmentation event that occurred within the retention time window (±10 min) of parent ion elution. To ensure that the correct pair of peaks is quantified, chromatograms are extracted within a 10 ppm error tolerance of the predicted m/z, the signal-to-noise ratio must be >2.5 and the ‘co-elution correlation score’ and ‘envelope correlation score’ must have R^2 values ≥0.8. In addition, peptides detected as ‘singletons,’ where only the heavy ion of a peptide pair was identified, but for which passed all other filtering parameters, are given a default assigned ratio of ‘20,’ which is defined as any measured ratio that is ≥20.
(§4) To further eliminate false positives and any stochastic variability in the data, protein ratios were then determined by the median peptide ratio derived from three or more unique quantified peptides. Protein ratios that complied with these criteria from a single experiment were then averaged with ratios acquired from ≥3 replicates to provide final values for each type of experiment in both cell lines with both probes. […] Probe targets in HEK293T and MDA-MB-231 cells represent data combined from ≥3 independent biological replicates with each cell type performed with several independent batches of synthesized probes over a period of almost two years.
(§5) Two types of experiments were performed—1) direct enrichment of probe 1-labelled proteins from heavy cells in comparison to light control cells treated with the non-clickable hydrazine (3) at the same concentration as 1 (3 mM for 0.5 h); and 2) competition experiments where both heavy and light cells were treated probe 1, but light cells were also treated with 10× competitor 3 (FIG. 3A)—in two different human cell lines (HEK293T cells and the human breast cancer cell line MDA-MB-231).

LGMN Legumain (Q99538) = biological target: T2, LGMN Legumain (Q99538) (Homo sapiens, UniProt Q99538); test: SILAC RP-ABPP; settings: SILAC competition, drug in place of probe 3
T2 construct: shared by both the endogenous and recombinant forms of these proteins; endogenous in cells; host or cells: HEK293T and MDA-MB-231
T2 sequence (Q99538 18-323): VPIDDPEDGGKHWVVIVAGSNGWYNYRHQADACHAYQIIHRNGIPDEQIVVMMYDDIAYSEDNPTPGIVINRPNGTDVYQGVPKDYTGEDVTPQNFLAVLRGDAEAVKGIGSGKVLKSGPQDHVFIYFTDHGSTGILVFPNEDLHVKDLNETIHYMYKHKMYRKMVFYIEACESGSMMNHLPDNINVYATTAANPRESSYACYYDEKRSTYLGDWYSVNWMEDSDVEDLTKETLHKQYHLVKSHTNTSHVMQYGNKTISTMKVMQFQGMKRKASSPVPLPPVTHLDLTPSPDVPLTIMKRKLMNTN
Procedure: as §1, §2, §3, §4, §5

[2] = biological target: T3, AMD1 S-adenosylmethionine decarboxylase (P17707) (Homo sapiens, UniProt P17707); test: SILAC RP-ABPP; settings: SILAC competition, drug in place of probe 3
T3 construct: shared by both the endogenous and recombinant forms of these proteins; endogenous in cells; host or cells: HEK293T and MDA-MB-231
T3 sequence (P17707 68-334 limits assumed): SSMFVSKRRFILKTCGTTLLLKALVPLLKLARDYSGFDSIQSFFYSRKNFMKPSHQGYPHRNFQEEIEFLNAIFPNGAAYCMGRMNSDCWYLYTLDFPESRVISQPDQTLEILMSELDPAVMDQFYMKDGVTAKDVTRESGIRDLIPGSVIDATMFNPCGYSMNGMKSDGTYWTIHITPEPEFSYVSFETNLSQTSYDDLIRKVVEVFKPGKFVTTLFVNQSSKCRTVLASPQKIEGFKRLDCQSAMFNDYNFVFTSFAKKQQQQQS
T3 sequence (P17707 1-67 limits assumed): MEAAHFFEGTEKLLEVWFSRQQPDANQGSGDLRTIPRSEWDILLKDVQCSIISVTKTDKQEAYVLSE
Procedure: as §1, §2, §3, §4, §5

[3] = biological target: T4, SCRN2 Secernin-2 (Q96FV2) (Homo sapiens, UniProt Q96FV2); test: SILAC RP-ABPP; settings: SILAC competition, drug in place of probe 3
T4 construct: shared by both the endogenous and recombinant forms of these proteins; endogenous in cells; host or cells: HEK293T and MDA-MB-231
Procedure: as §1, §2, §3, §4, §5

AMD1 = biological target: T5, AMD1 (Homo sapiens, UniProt P17707); test: gel-based RP-ABPP of transfected HEK293T cells; settings: L-methionine lowered from 200 μM to 10 μM; AMD1 expression negligibly changed
T5 construct: Full-length genes encoding three probe 1- and one probe 2-targeted proteins were amplified from a cDNA library; expressed in transfected cells; host or cells: HEK293T
T5 sequence (P17707 68-334 limits assumed): T3 sequence (P17707 68-334 limits assumed)
T5 sequence (P17707 1-67 limits assumed): T3 sequence (P17707 1-67 limits assumed)

Row | SMILES | competition of probe 1 labelling by competitor drug [1] | competition of probe 1 labelling by competitor drug (LGMN Legumain (Q99538)) | competition of probe 1 labelling by competitor drug [2] | competition of probe 1 labelling by competitor drug [3] | increase of probe 1 labeling of recombinant AMD1 (AMD1)
1 | NNCCc1ccccc1 [phenelzine, reference compound] | Near complete loss of probe labelling | Near complete loss of probe labelling | Near complete loss of probe labelling | Near complete loss of probe labelling | –
2 | CSCC[C@H](N)C(=O)O [L-methionine] | – | – | – | – | seven-fold
